Test results taken from US20230183193A1, “4-DIFLUOROMETHYL BENZOYL AMIDES WITH HERBICIDAL ACTION” (BAYER CROPSCIENCE AKTIENGESELLSCHAFT, priority 2017, published 2023).

Key:
Format in all cases: in vivo
[1] = tested on: Abutilon theophrasti; test: Pre-emergence herbicidal action, ABUTH; conditions: dosage 320 g/ha, scored visually after 3 weeks vs untreated controls
Excerpt: (§1) 1. Pre-Emergence Herbicidal Action Against Harmful Plants Seeds of monocotyledonous and dicotyledonous weed plants and crop plants are laid out in sandy loam soil in wood-fiber pots and covered with soil. The compounds of the invention, formulated in the form of wettable powders (WP) or as emulsion concentrates (EC), are then applied to the surface of the covering soil in the form of an aqueous suspension or emulsion at a water application rate equating to […], with addition of 0.2% wetting agent. After the treatment, the pots are placed in a greenhouse and kept under good growth conditions for the trial plants. The damage to the test plants is scored visually after a test period of 3 weeks by comparison with untreated controls (herbicidal activity in percent (%): 100% activity=the plants have died, 0% activity=like control plants).
(§2) For comparison, the herbicidal activity of numerous compounds according to the invention was tested with the structurally closest compounds known from the documents WO 2011/035874, WO 2012/028579 and WO 2012/126932, by the pre- and post-emergence method.

[2] = tested on: Alopecurus myosuroides; test: Pre-emergence herbicidal action, ALOMY; conditions: dosage 320 g/ha, scored visually after 3 weeks vs untreated controls
Excerpt: as §1, §2

[3] = tested on: Amaranthus retroflexus; test: Pre-emergence herbicidal action, AMARE; conditions: dosage 320 g/ha, scored visually after 3 weeks vs untreated controls
Excerpt: as §1, §2

[4] = tested on: Avena fatua; test: Pre-emergence herbicidal action, AVEFA; conditions: dosage 320 g/ha, scored visually after 3 weeks vs untreated controls
Excerpt: as §1, §2

[5] = tested on: Cyperus serotinus; test: Pre-emergence herbicidal action, CYPES; conditions: dosage 320 g/ha, scored visually after 3 weeks vs untreated controls
Excerpt: as §1, §2

[6] = tested on: Matricaria inodora; test: Pre-emergence herbicidal action, MATIN; conditions: dosage 320 g/ha, scored visually after 3 weeks vs untreated controls
Excerpt: as §1, §2

[7] = tested on: Setaria viridis; test: Pre-emergence herbicidal action, SETVI; conditions: dosage 320 g/ha, scored visually after 3 weeks vs untreated controls
Excerpt: as §1, §2

[8] = tested on: Stellaria media; test: Pre-emergence herbicidal action, STEME; conditions: dosage 320 g/ha, scored visually after 3 weeks vs untreated controls
Excerpt: as §1, §2

[9] = tested on: Viola tricolor; test: Pre-emergence herbicidal action, VIOTR; conditions: dosage 320 g/ha, scored visually after 3 weeks vs untreated controls
Excerpt: as §1, §2

[10] = tested on: Abutilon theophrasti; test: Post-emergence herbicidal action, ABUTH; conditions: 80 g/ha, Table D
Method: (§3) Seeds of monocotyledonous and dicotyledonous weed and crop plants are laid out in sandy loam soil in wood-fiber pots, covered with soil and cultivated in a greenhouse under good growth conditions. 2 to 3 weeks after sowing, the test plants are treated at the one-leaf stage. The compounds of the invention, formulated in the form of wettable powders (WP) or as emulsion concentrates (EC), are then sprayed onto the green parts of the plants in the form of an aqueous suspension or emulsion at a water application rate equating to […], with addition of 0.2% wetting agent. After the test plants have been left to stand in the greenhouse under optimal growth conditions for about 3 weeks, the action of the preparations is assessed visually in comparison to untreated controls (herbicidal action in percent (%): 100% activity=the plants have died, 0% activity=like control plants). […] At the same time, inventive compounds leave Gramineae crops such as barley, wheat, rye, millet/sorghum, corn or rice virtually undamaged when applied post-emergence, even at high active compound dosages. In addition, some substances are also harmless to dicotyledonous crops such as soya, cotton, oilseed rape, sugar beet or potatoes. Some of the compounds according to the invention have high selectivity and are therefore suitable for controlling unwanted vegetation in agricultural crops by the post-emergence method. The data of Tables C and D below illustrate, in an exemplary manner, the […] herbicidal action of the compounds according to the invention, the herbicidal activity being stated in percent.
as §2

[11] = tested on: Alopecurus myosuroides; test: Post-emergence herbicidal action, ALOMY; conditions: 80 g/ha, Table C
Method: as §3, §2

[12] = tested on: Avena fatua; test: Post-emergence herbicidal action, AVEFA; conditions: 80 g/ha, Table C
Method: as §3, §2

[13] = tested on: Pharbitis purpureum; test: Post-emergence herbicidal action, PHBPU; conditions: 80 g/ha, Table D
Method: as §3, §2

[14] = tested on: Setaria viridis; test: Post-emergence herbicidal action, SETVI; conditions: 80 g/ha, Table C
Method: as §3, §2

[15] = tested on: Stellaria media; test: Post-emergence herbicidal action, STEME; conditions: 80 g/ha, Table D
Method: as §3, §2

[16] = tested on: Viola tricolor; test: Post-emergence herbicidal action, VIOTR; conditions: 80 g/ha, Table D
Method: as §3, §2

[17] = tested on: ECHCG; test: Post-emergence herbicidal action, ECHCG; conditions: 80 g/ha, Table C
Method: as §3

[18] = tested on: Amaranthus retroflexus; test: Post-emergence herbicidal action, AMARE; conditions: 80 g/ha, Table D
Method: as §3, §2

Row | SMILES | herbicidal activity ABUTH [1] [%] | herbicidal activity ALOMY [2] [%] | herbicidal activity AMARE [3] [%] | herbicidal activity AVEFA [4] [%] | herbicidal activity CYPES [5] [%] | herbicidal activity MATIN [6] [%] | herbicidal activity SETVI [7] [%] | Herbicidal activity STEME [8] [%] | herbicidal activity VIOTR [9] [%] | herbicidal activity ABUTH [10] [%] | herbicidal activity ALOMY [11] [%] | herbicidal activity AVEFA [12] [%] | Herbicidal activity PHBPU [13] [%] | herbicidal activity SETVI [14] [%] | Herbicidal activity STEME [15] [%] | herbicidal activity VIOTR [16] [%] | Herbicidal activity ECHCG [17] [%] | herbicidal activity AMARE [18] [%]
1 | CCCn1nnnc1NC(=O)c1ccc(C(F)F)c([S+](C)[O-])c1C (stereo not shown) [Example 3-2] | 100 | 90 | 100 | 90 | 80 | 100 | 100 | 90 | 100 | 80 | 90 | 90 | 90 | 100 | 100 | 100 | 90 | –
2 | CCS(=O)(=O)c1c(C(F)F)ccc(C(=O)Nc2nnnn2C)c1F [Example 1-42] | 100 | 100 | 100 | 100 | 100 | 100 | 100 | 100 | 100 | 90 | – | – | 100 | 90 | 100 | 100 | 80 | 100
3 | CCSc1c(C(F)F)ccc(C(=O)Nc2nnnn2CC)c1F [Example 2-40] | 100 | – | 100 | – | – | 100 | 100 | 100 | 100 | 100 | 80 | – | 90 | 100 | 100 | 100 | 100 | 100
4 | CCc1c(C(=O)Nc2nnc(C)o2)ccc(C(F)F)c1SC [Example 7-11] | 100 | 80 | 100 | 90 | 90 | – | 100 | 80 | 100 | 90 | 90 | – | 90 | 90 | 90 | 100 | 90 | 90
5 | CCn1nnnc1NC(=O)c1ccc(C(F)F)c([S+](C)[O-])c1Cl (stereo not shown) [Example 2-50] | 100 | 100 | 100 | 100 | 100 | 100 | 100 | 100 | 100 | 100 | – | 100 | 100 | 100 | 100 | 100 | 90 | 100
6 | CCc1c(C(=O)Nc2nnnn2CC)ccc(C(F)F)c1[S+](C)[O-] (stereo not shown) [Example 2-14] | 100 | 100 | 100 | 100 | 100 | 100 | 100 | 100 | 100 | 100 | – | 90 | 90 | 100 | 100 | 100 | 100 | 100
7 | CCn1nnnc1NC(=O)c1ccc(C(F)F)c(S(C)(=O)=O)c1F [Example 2-39] | 100 | – | 100 | 100 | 100 | 100 | 100 | 100 | 100 | 100 | – | 80 | 90 | 100 | 100 | 100 | 90 | 90
8 | CCn1nnnc1NC(=O)c1ccc(C(F)F)c(S(=O)(=O)CC)c1F [Example 2-42] | 100 | 90 | 100 | 90 | 90 | 100 | 100 | 90 | 100 | 100 | – | – | 90 | 100 | 100 | 100 | 100 | 90
9 | CCn1nnnc1NC(=O)c1ccc(C(F)F)c(S(C)(=O)=O)c1Cl [Example 2-51] | 100 | 90 | 100 | 100 | 90 | 100 | 100 | 90 | 100 | 100 | – | 90 | 90 | 90 | 100 | 100 | 90 | 100
10 | Cc1c(C(=O)Nc2ncnn2C)ccc(C(F)F)c1[S+](C)[O-] (stereo not shown) [Example 4-2] | 100 | – | 100 | 80 | 80 | 100 | 100 | 100 | 90 | 90 | – | 80 | 90 | 80 | 90 | 100 | 100 | 100
11 | CCSc1c(C(F)F)ccc(C(=O)Nc2nnnn2CC)c1C [Example 2-4] | 100 | 100 | 100 | 100 | 100 | 100 | 100 | 90 | 100 | – | 90 | 100 | 100 | 90 | 100 | 100 | 90 | –
